A word on the IC50: it is the midpoint of a concentration-inhibition curve.

Holding throughout (assay type): functional, cell-based
One test deals with KB. Kind of test: Antiproliferative activity against human KB cells assessed as inhibition of cell growth incubated for 72 hrs by SRB assay. (The SRB assay estimates cell density from bound dye.)
The nature of test [1]: Antiproliferative activity against human KB-VIN cells overexpressing p-gp assessed as inhibition of cell growth incubated for 72 hrs by SRB assay. The settings on record: KBVIN.
The next test concerns MDA-MB-231. The test is described as follows: Antiproliferative activity against triple negative human MDA-MB-231 cells assessed as inhibition of cell growth incubated for 72 hrs by SRB assay. The settings on record: MDA-MB-231, 72 h.
Another test has as its system MCF7. Kind of test: Antiproliferative activity against HER2-negative human MCF7 cells assessed as inhibition of cell growth incubated for 72 hrs by SRB assay. The settings on record: MCF7, 72 h.
In the next test the test system is A549. The test is described as follows: Antiproliferative activity against human A549 cells assessed as inhibition of cell growth incubated for 72 hrs by SRB assay. The settings on record: A549, 72 h.

For the compound `COc1cc(-c2ccc3c(c2)C=CC(C)(C)O3)cc(O)c1O`, the 50% inhibitory concentration (IC50) (with KB; in test [1]; in the test with MDA-MB-231; with MCF7; with A549) was more than 10 µM throughout.
Take `COc1cc(-c2ccc(O)c(C/C=C(/C)CO)c2)cc(O)c1O`: the IC50 (in the test with KB; in test [1]; in the test with MDA-MB-231; in the test with MCF7; in the test with A549) was more than 10 µM each time.
Consider `CC(=O)O[C@H]1C(=O)[C@@]2(C)[C@H]([C@H](OC(=O)c3ccccc3)[C@]3(O)C[C@H](OC(=O)[C@H](O)[C@@H](NC(=O)c4ccccc4)c4ccccc4)C(C)=C1C3(C)C)[C@]1(OC(C)=O)CO[C@@H]1C[C@@H]2O` [PACLITAXEL], for which the half-maximal inhibitory concentration (IC50) was less than 0.0001 µM in the test on KB, 2.2 µM in test [1] and 0.0009 µM in the test with MDA-MB-231.
In the case of `C=CC(C)(C)c1c2c(c(O)c3c1OC(C)(C)[C@H]1CCC(C)=C[C@@H]31)C(=O)C1=C[C@@H]3C[C@H]4C(C)(C)O[C@@](C/C=C(\C)C(=O)O)(C3=O)[C@@]14O2`, the half-maximal inhibitory concentration (IC50) in the test with KB turned out to be 1.2 µM; in test [1], 5.2 µM; with MDA-MB-231, 4.6 µM; in the test with MCF7, 5.6 µM; in the test with A549, 2.9 µM.
The matching figures for `COc1c(O)c(O)cc(-c2ccccc2)c1CC=C(C)C`: more than 10 µM, more than 10 µM, more than 10 µM, more than 10 µM and more than 10 µM.
The matching figures for `COc1cc(-c2ccc(O)c(CCC(C)CO)c2)cc(O)c1O` (stereo not drawn): more than 10 µM, more than 10 µM, more than 10 µM, more than 10 µM and more than 10 µM.
The matching figures for `C=CC(C)(C)c1c2c(c(O)c3c1O[C@]14C(=C[C@@H]5C[C@H]1C(C)(C)O[C@@]4(C/C=C(\C)C(=O)O)C5=O)C3=O)C=CC(C)(C)O2`: 0.6 µM, 0.6 µM, 0.5 µM, 1.3 µM and 0.8 µM.
Regarding `C=CC(C)(C)c1c2c(c(O)c3c1OC(C)(C)[C@H]1CCC(C)=C[C@@H]31)C(=O)[C@@H]1[C@@H](OC)[C@@H]3C[C@H]4C(C)(C)O[C@@](C/C=C(\C)C(=O)O)(C3=O)[C@@]14O2`, the IC50 with KB came out at 5.2 µM; in test [1] it was 5.2 µM; in the test with MDA-MB-231 it was 5.7 µM; with MCF7, 6.4 µM; with A549, 5.6 µM.
As for `C=CC(C)(C)c1c2c(c(O)c3c1OC(C)(C)[C@H]1CCC(C)=C[C@@H]31)C(=O)[C@@H]1[C@@H](O)[C@@H]3C[C@H]4C(C)(C)O[C@@](C/C=C(\C)C(=O)O)(C3=O)[C@@]14O2`, the concentration for half-maximal inhibition (IC50) in the test on KB amounted to 5.3 µM; in test [1], 5.7 µM; with MDA-MB-231, 6.4 µM; in the test with MCF7, 6.7 µM; in the test with A549, 6.1 µM.
On the same counts, the results for `C=CC(C)(C)c1c2c(c(O)c3c1O[C@]14[C@H](C3=O)[C@@H](OC)[C@H]3C[C@H]1C(C)(C)O[C@@]4(C/C=C(\C)C(=O)O)C3=O)C=CC(C)(C)O2` are 6.1 µM, more than 10 µM, more than 10 µM, 10.4 µM and more than 10 µM.
The matching figures for `C=CC(C)(C)c1c2c(c(O)c3c1OC(C)(C)[C@H]1CCC(C)=C[C@@H]31)C(=O)C1=C[C@@H]3C[C@H]4C(C)(C)O[C@@](C/C=C(/C)C(=O)O)(C3=O)[C@@]14O2`: 1.8 µM, 4 µM, 2.9 µM, 3.2 µM and 3 µM.

Source of the values: ChEMBL document CHEMBL5357030, “Caged Xanthones and Biphenyls Isolated from the Tropical Plant Garcinia lateriflora” (J Nat Prod, 2024).
